From patent publication US12448383B2, “Compounds and methods for treatment of viral infections” (priority 2022, dated 2025)

Tests used:
[1] = test system: Respiratory syncytial virus recombinant with luciferase (RSV-Luc5) in Normal Human Bronchial Epithelial (NHBE) cells; test: microbe, parasite or virus in culture; assay type: cell-based; settings: 72 h, read-out: RSV NHBE EC50
[2] = CC50 MT4 cytotoxicity (Cell-Titer Glo); assay type: cell-based; settings: human
Protocol: Cytotoxicity of the compounds was determined in uninfected cells using the cell viability reagent in a similar fashion as described before for other cell types (Cihlar et al., Antimicrob Agents Chemother. 2008, 52(2):655-65). HEp-2 (1.5×10^3 cells/well) and MT-4 (2×10^3 cells/well) cells were plated in 384-well plates and incubated with the appropriate medium containing 3-fold serially diluted compound ranging from 15 nM to 100,000 nM. Cells were cultured for 4-5 days at 37° C. Following the incubation, the cells were allowed to equilibrate to 25° C., and cell viability was determined by adding Cell-Titer Glo viability reagent. The mixture was incubated for 10 min, and the luminescence signal was quantified using an Envision plate reader. Untreated cell and cells treated at 2 μM puromycin (Sigma, St. Louis, MO) serve as 100% and 0% cell viability control, respectively. The percent of cell viability was calculated for each tested compound concentration relative to the 0% and 100% controls and the CCso value was determined by non-linear regression as a compound concentration reducing the cell viability by 50%.

[3] = test system: Respiratory syncytial virus recombinant with luciferase (RSV-Luc5) in HEp-2 cells; test: microbe, parasite or virus in culture; assay type: cell-based; settings: human respiratory syncytial virus, HEp-2, 72 h, read-out: RSV Hep2 EC50
[4] = test system: SARS Coronavirus 2 recombinant with NanoLuc (SARS-CoV2-NLuc) in A549-hACE2 cells; test: organism not typed; assay type: cell-based; settings: 48 h; read-out: SARS-CoV2 EC50
[5] = GI S9 stability - no PMSF; assay type: in vitro ADME; settings: pH 7.4; human intestinal S9, PMSF-free; read-out: GIS9-HUMAN-NoPMSF T1/2
Protocol: Duplicate aliquots of test compound or positive control substrate (GS-7340) were added to S9 stock diluted with 100 mM phosphate buffered saline, pH 7.4, to obtain a protein concentration of 1.0 mg/mL. The S9 metabolic reactions were initiated by the addition of the substrates to the S9 reaction mixture to a final concentration of 2 μM. At 0, 10, 20, 30, 60 and 120 min, […] aliquots of the reaction mixture were transferred to plates containing […] of IS/Q solution. After quenching, the plates were centrifuged at 3000 g for 30 minutes, and 150 μL aliquots of each supernatant were diluted with 150 μL water. Aliquots ([…]) of the diluted supernatant were analyzed on a Thermo Q-Exactive mass spectrometer as described below. GI S9 Stability—No phenylmethylsulfonyl fluoride (PMSF): Similar to the procedure described above, test compounds were incubated at 2 μM with 1 mg/mL PMSF-free Intestinal S9 fractions. Samples are removed at 6 time points over the course of a 120 min experiment and the parent compound disappreance and reference compound A formation is determined by mass spectrometry.
Example K: Liquid Chromatography/Mass Spectroscopy Methods for S9 and Plasma Stability
Quantification of test compounds, Reference Compound A (S9 stability assay nucleoside metabolite), and controls was performed by analyte/internal standard peak area ratio (PAR) values measured on a Thermo Q-Exactive mass spectrometer coupled to a Dionex UltiMate 3000 HPLC with a Leap Technologies HTC PAL autosampler. The column used for analysis of test compounds and Reference Compound A was a Waters Acquity BEH C18 ([…] particle size, 2.1′50 mm). The column used for control (GS-7340) was a Thermo Hypersil GOLD ([…] particle size, 2.1′50 mm). Mobile phase A consisted of 0.1% (v/v) formic acid in water. Mobile phase B consisted of 0.1% (v/v) formic acid in acetonitrile. Elution of analytes was achieved by a series of linear gradients of acetonitrile in water containing 0.1°(v/v) formic acid. The mass spectrometer was calibrated on a weekly basis and mass tolerance of 5 ppm was used.

[6] = Plasma stability; assay type: in vitro ADME; design: unit not given here; settings: 37° C., 2 μM substrate
Protocol: At 0.05, 0.5, 1, 2, 3 and 4 hr, […] aliquots of the reaction mixture were transferred to plates containing […] of IS/Q quenching solution. After quenching, the plates were centrifuged at 3000 g for 30 minutes, and 150 μL supernatant was diluted with 150 μL water. Aliquots ([…]) of the diluted supernatant were analyzed on a Thermo Q-Exactive mass spectrometer as described below.
Mobile phase A consisted of 0.1% (v/v) formic acid in water. Mobile phase B consisted of 0.1% (v/v) formic acid in acetonitrile. Elution of analytes was achieved by a series of linear gradients of acetonitrile in water containing 0.1°(v/v) formic acid. The mass spectrometer was calibrated on a weekly basis and mass tolerance of 5 ppm was used.

N#C[C@@]1(c2ccc3c(N)ncnn23)O[C@H](COC(=O)OCC2CCCCC2)[C@@H](O)[C@H]1O [Compound 86, ((2R,3S,4R,5R)-5-(4-aminopyrrolo[2,1-f][1,2,4]triazin-7-yl)-5-cyano-3,4-dihydroxytetrahydrofuran-2-yl)methyl (cyclohexylmethyl) carbonate]
EC50 [1]: 1.22 µM
CC50 [2]: > 50 µM
EC50 [3]: 0.371 µM
EC50 [4]: 0.623 µM
half-life at 2 µM [5]: 41 s
STA Human Plasma 37 [6]: 48.6

CC(C)(C)COC(=O)OC[C@H]1O[C@@](C#N)(c2ccc3c(=N)n(COP(=O)(O)OCc4ccccc4)cnn23)[C@H](O)[C@@H]1O [Compound 18, ((2R,3S,4R,5R)-5-(3-((((benzyloxy)(hydroxy)phosphoryl)oxy)methyl)-4-imino-3,4-dihydropyrrolo[2,1-f][1,2,4]triazin-7-yl)-5-cyano-3,4-dihydroxytetrahydrofuran-2-yl)methyl neopentyl carbonate]
EC50 [1]: 12.1 µM
CC50 [2]: > 50 µM
EC50 [3]: 2.87 µM
EC50 [4]: 12.4 µM

CC(C)COC(=O)OC[C@H]1O[C@@](C#N)(c2ccc3c(N)ncnn23)[C@@H]2OC(=O)O[C@@H]21 [Compound 17, ((3aR,4R,6R,6aR)-6-(4-aminopyrrolo[2,1-f][1,2,4]triazin-7-yl)-6-cyano-2-oxotetrahydrofuro[3,4-d][1,3]dioxol-4-yl)methyl isobutyl carbonate]
EC50 [1]: 1.9 µM
CC50 [2]: > 50 µM
EC50 [3]: 0.412 µM
EC50 [4]: 0.814 µM

CC[C@@H](C)OC(=O)OC[C@H]1O[C@@](C#N)(c2ccc3c(N)ncnn23)[C@H](O)[C@@H]1O [Compound 89, ((2R,3S,4R,5R)-5-(4-aminopyrrolo[2,1-f][1,2,4]triazin-7-yl)-5-cyano-3,4-dihydroxytetrahydrofuran-2-yl)methyl ((R)-sec-butyl) carbonate]
EC50 [1]: 0.978 µM
CC50 [2]: > 50 µM
EC50 [3]: 0.665 µM
EC50 [4]: 2.69 µM
half-life at 2 µM [5]: 35.4 s
STA Human Plasma 37 [6]: 188.5

CCCCCOC(=O)OC[C@H]1O[C@@](C#N)(c2ccc3c(N)ncnn23)[C@H](O)[C@@H]1O [Compound 27, ((2R,3S,4R,5R)-5-(4-aminopyrrolo[2,1-f][1,2,4]triazin-7-yl)-5-cyano-3,4-dihydroxytetrahydrofuran-2-yl)methyl pentyl carbonate]
EC50 [1]: 1.01 µM
CC50 [2]: > 50 µM
EC50 [3]: 0.145 µM
EC50 [4]: 0.658 µM

N#C[C@@]1(c2ccc3c(N)ncnn23)O[C@H](COC(=O)OCC2CCCC2)[C@@H](O)[C@H]1O [Compound 85, ((2R,3S,4R,5R)-5-(4-aminopyrrolo[2,1-f][1,2,4]triazin-7-yl)-5-cyano-3,4-dihydroxytetrahydrofuran-2-yl)methyl (cyclopentylmethyl) carbonate]
EC50 [1]: 0.776 µM
CC50 [2]: > 50 µM
EC50 [3]: 0.166 µM
EC50 [4]: 0.417 µM
half-life at 2 µM [5]: 37.3 s
STA Human Plasma 37 [6]: 38.6
